Tests used:
[1] = target: T1, Cathepsin L from rat liver (Rattus norvegicus, UniProt P07154); experiment: Inhibition of cathepsin L, Z-Phe-Arg-AMC fluorescence progress curves; assay type: biochemical; settings: values without asterisk; 25° C., pH 6.2
T1 construct: Cathepsin L from rat liver; from tissue; host or cells: rat liver
Method: (§1) Stock solutions of the various inhibitors (10 mM) were made in DMF; dilutions were made in the same solvent. Cathepsin L from rat liver, (see Mason et al., Biochem. J. 226:233-241 (1985)) was approximately 1 nM in the assay. The assay buffer contained 50 mM phosphate at pH 6:2, 2.5 mM dithiothreitol (DTT), and 2.5 mM ethylenediaminetetraacetic acid (EDTA). The substrate for cathepsin L was 5 μM Z-Phe-Arg-AMC (carbobenzyloxyphenylalanylarginylaminomethylcoumarin). The assays were initiated at 25° C. by addition of enzyme to 2 mL of assay buffer containing the substrate and the various inhibitors (30-0.001 μM). The increase in fluorescence at 460 nm with excitation at 380 nm was followed with time. Inactivation of cathepsin L was indicated by a downward curve in the increase in fluorescence with time. In the absence of inhibitors, the enzymatic production of free AMC was linear throughout the time course of inactivation examined. Data points were collected over at least 3 half-times of inactivation. The inhibition progress curves were analyzed using non-linear curve fitting software to compute the kobs values. Approximate second-order inactivation constants (kobs /[I]) were calculated for all compounds. For selected inhibitors, plots of 1/[I] vs. 1/kobs yielded the true constants kirr, KI, and kirr/KI and were corrected for the presence of substrate by dividing KI (app.) by (1+[S]/Km).

cruzain, from T. cruzi = cruzain, from T. cruzi (Trypanosoma cruzi, UniProt P25779); experiment: Inhibition of cruzain, as for cathepsin L; assay type: biochemical; settings: for k/KI (kirr/KI): values without asterisk
cruzain, from T. cruzi, sequence (P25779 123-337 limits assumed): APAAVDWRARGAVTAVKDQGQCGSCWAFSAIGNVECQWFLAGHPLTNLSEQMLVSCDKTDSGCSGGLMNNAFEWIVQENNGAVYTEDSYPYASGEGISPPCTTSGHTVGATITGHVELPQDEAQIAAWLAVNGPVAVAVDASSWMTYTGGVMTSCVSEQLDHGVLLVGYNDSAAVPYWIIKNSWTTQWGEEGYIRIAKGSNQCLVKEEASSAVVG
Method: as §1
Inhibition of cruzain, from T. cruzi, (see Eakin et at., J. Biol. Chem. 268(9): 6115-6118 (1993)) proceeded exactly as for cathepsin L, outlined above, using an enzyme concentration of 1 nM.

calpain = experiment: Inhibition (inactivation) of calpain, Suc-Leu-Tyr-AMC; assay type: biochemical; settings: pH 7.5, 5 mM CaCl2, 25° C.; for kobs /[I]*: values marked * (or %)
Method: The inhibitors were tested against calpain at 1 or 2% as for the other enzymes. The reaction conditions were 50 mM Tris, pH 7.5, 5 mM CaCl2, 2.5 mM DTT, assayed at 25° C. The substrate was 100 μM Suc-Leu-Tyr-AMC.

[2] = target: T2, Cathepsin B from human placenta (Homo sapiens, UniProt P07858); experiment: Inhibition of cathepsin B, Z-Arg-Arg-AMC fluorescence progress curves; assay type: biochemical; settings: for k/KI (kirr/KI): values without asterisk, 25° C., pH 6.2
T2 construct: Cathepsin B from human placenta, obtained from Sigma; purchased Sigma; host or cells: human placenta (tissue)
Method: Stock solutions of the various inhibitors (10 mM) were made in DMF; dilutions were made in the same solvent. Cathepsin B from human placenta, obtained from Sigma, was approximately 10 nM in the assay. The assay buffer contained 50 mM phosphate at pH 6.2, 2.5 mM dithiothreitol (DTT), and 2.5 mM ethylenediaminetetraacetic acid (EDTA). The substrate for cathepsin B was 50 μM Z-Arg-Arg-AMC (carbobenzyloxyarginylarginylaminomethylcoumarin). The assays were initiated at 25° C. by addition of enzyme to 2 mL of assay buffer containing the substrate and the various inhibitors (30-0.001 (μM). The increase in fluorescence at 460 nm with excitation at 380 nm was followed with time, and the assay was linear throughout the range observed. Inactivation of cathepsin B was indicated by a downward curve in the increase in fluorescence with time. In the absence of inhibitors, the enzymatic production of free AMC was linear throughout the time course of inactivation examined. Data points were collected over at least 3 half-times of inactivation, and in duplicate. The inhibition progress curves were analyzed using non-linear curve fitting software to compute the kobs values. Approximate second-order inactivation constants (kobs /[I]) were calculated for all compounds. For selected inhibitors, plots of 1/[I] vs. 1/kobs yielded the true constants kirr, KI, and kirr /KI, and were corrected for the presence of substrate by dividing KI (app.) by {1+[S]/Km }.

[3] = test system: Leishmania donovani amastigote infected mouse peritoneal macrophages; experiment: In vitro antiprotozoal activity, Leishmania donovani; assay type: cell-based; settings: Leishmania donovani, Peritoneal macrophage, read-out: percentage inhibition, L. donovani
Method: (§2) In this table, the in vitro antiprotozoal activities of the indicated compounds were measured as percentage inhibition of Leishmania donovani amastigote infecteda mouse peritoneal macrophages, Trypanosoma cruzi amastigote infected macrophages, and Trypanosoma brucei extracellular bloodstream forms.

[4] = test system: Trypanosoma cruzi amastigote infected macrophages; experiment: In vitro antiprotozoal activity, Trypanosoma cruzi; assay type: cell-based; settings: Trypanosoma cruzi, Macrophage, read-out: percentage inhibition, T. cruzi
Method: as §2

[5] = test system: Trypanosoma brucei extracellular bloodstream forms; experiment: In vitro antiprotozoal activity, Trypanosoma brucei; assay type: cell-based; settings: Trypanosoma brucei, read-out: percentage inhibition, T. brucei
Method: as §2

T1 sequence (P07154 114-288 limits assumed): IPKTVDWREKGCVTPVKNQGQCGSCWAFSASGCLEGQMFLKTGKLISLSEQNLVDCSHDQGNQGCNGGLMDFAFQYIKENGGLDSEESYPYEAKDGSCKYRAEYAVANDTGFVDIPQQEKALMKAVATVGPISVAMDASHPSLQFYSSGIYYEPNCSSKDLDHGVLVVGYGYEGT
T1 sequence (P07154 291-334 limits assumed): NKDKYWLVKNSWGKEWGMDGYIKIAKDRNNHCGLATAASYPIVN

SMILES | k/KI (kirr/KI) [1] | k/KI (kirr/KI) (cruzain, from T. cruzi) | kobs /[I]* (calpain) | k/KI (kirr/KI) [2] | also measured
CC(=O)N[C@@H](CC(C)C)C(=O)N[C@@H](CC(C)C)C(=O)N[C@H](/C=C/S(=O)(=O)c1ccccc1)CCS(C)(=O)=O [Ac-Leu-Leu-Met(O2)VSPh, (S)-(E)-3-(acetylleucylleucyl)amino-5-methylsulfonyl-1-phenylsulfonyl-1-pentene] | 1,500,000 M^-1 sec^-1 | 104,000 M^-1 sec^-1 | 8,400 M^-1 sec^-1 |  | 
CSCC[C@@H](/C=C/S(=O)(=O)c1ccccc1)NC(=O)[C@H](CC(C)C)NC(=O)[C@H](CC(C)C)NC(C)=O [Ac-Leu-Leu-MetVSPh, (S)-(E)-3-(acetylleucylleucyl)amino-1-phenylsulfonyl-6-thia-1-heptene] | 880,000 M^-1 sec^-1 | 110,000 M^-1 sec^-1 | 5,600 M^-1 sec^-1 | 0 M⁻¹ s⁻¹ | 
CCCC[C@@H](/C=C/S(=O)(=O)c1ccccc1)NC(=O)[C@H](CC(C)C)NC(=O)[C@H](CC(C)C)NC(C)=O [Ac-Leu-Leu-NleVSPh, (S)-(E)-3-(acetylleucylleucyl)amino-1-phenylsulfonyl-1-heptene] | 930,000 M^-1 sec^-1 | 133,000 M^-1 sec^-1 | 6,900 M^-1 sec^-1 | 0 M⁻¹ s⁻¹ | 
CC(=O)N[C@@H](Cc1ccc(O)cc1)C(=O)N[C@H](C(=O)N[C@@H](C)C(=O)NC(/C=C/S(=O)(=O)c1ccccc1)CC(=O)O)C(C)C (stereo partly drawn) [Ac-Tyr-Val-Ala-AspVSPh, (e)-3-acetyltyrosylvalylalanylamino-4-hydroxycarbonyl-1-phenylsulfonyl-1-butene] | 0 M⁻¹ s⁻¹ | 0 M⁻¹ s⁻¹ |  |  | k/KI (kirr/KI) (calpain; values without asterisk): 0 M⁻¹ s⁻¹
Cl.NCC(=O)N[C@H](/C=C/S(=O)(=O)c1ccccc1)Cc1ccccc1 [HCl.Gly-Phe-VSPh, (S)-(E)-3-glycylamino-4-phenyl-1-phenylsulfonyl-1-butene hydrochloride] |  |  | < 50 M⁻¹ s⁻¹ |  | inhibition at 10 µM ([3]; 10 uM): 0%; inhibition at 30 µM ([3]; 30 uM): 0%; inhibition at 90 µM ([3]; 90 uM): 4.02%; inhibition at 3 µM ([4]; 3 uM): 0%; inhibition at 10 µM ([4]; 10 uM): 0%; inhibition at 30 µM ([4]; 30 uM): 0.1%; inhibition at 90 µM ([4]; 90 uM): 0%; inhibition at 3 µM ([5]; 3 uM): 0%; inhibition at 10 µM ([5]; 10 uM): 0%; inhibition at 30 µM ([5]; 30 uM): 0%; inhibition at 90 µM ([5]; 90 uM): 0%
Br.Br.N=C(N)NCCC[C@@H](/C=C/S(=O)(=O)c1ccccc1)NC(=O)[C@H](CCCNC(=N)N)NC(=O)N1CCOCC1 [Mu-Arg-ARgVSPh.2HBr, (S)-(E)-3-(4-morpholinecarbonylarginyl)amino-6-guanidino-1-phenylsulfonyl-1-hexene dihydrobromide] |  |  | < 50 M⁻¹ s⁻¹ | 26 M⁻¹ s⁻¹ | kirr [2]: 0.040 s⁻¹; Ki ([2]; corrected for substrate): 150 µM; kobs /[I]* (approximate second-order inactivation constant) (cruzain, from T. cruzi; values marked *): 2,100 M^-1 sec^-1
